Source: patent publication US8975401B2, “Quinazoline based EGFR inhibitors containing a zinc binding moiety” (Curis, Inc., priority 2006, dated 2015)
Where two headings read alike, the source gives them in different places. Blank lines part the entries; values can stand above or below the compound they belong to.

Columns and labels:
[1] = target: T1, human EGFR (His672-Ala1210) (Homo sapiens, UniProt P00533); assay: HTScan EGF Receptor Kinase Assay; format: biochemical; details: for activity in EFGR enzyme assay compared with erlotinib: FIG. 1
T1 construct: human EGFR (His672-Ala1210); GST (N); purchased Cell Signaling Technologies; host or cells: baculovirus expression system
Experimental: The ability of compounds to inhibit receptor kinase (EGFR) activity was assayed using HTSCAN™ EGF Receptor Kinase Assay Kits (Cell Signaling Technologies, Danvers, Mass.). […] The protein was purified by one-step affinity chromatography using glutathione-agarose.
Immediately transfer enzyme from −80° C. to ice. Allowed enzyme to thaw on ice. […] Returned immediately to ice. […] Incubated reaction plate at room temperature for 30 minutes. […] Added 100 μl/well primary antibody. Incubated at room temperature for 60 minutes. […] Added 100 μl/well diluted antibody. Incubated at room temperature for 30 minutes. […] Incubated at room temperature for 5 minutes.

HDAC = HDAC fluorimetric enzyme assay (Biomol AK-500, HeLa nuclear extract); format: biochemical
Experimental: HDAC inhibitors were screened using an HDAC fluorimetric assay kit (AK-500, Biomol, Plymouth Meeting, Pa.).
Each assay was setup as follows: Defrosted all kit components and kept on ice until use. […] Prepared dilutions of Trichostatin A (TSA, positive control) and tested compounds in assay buffer (5× of final concentration). Diluted Fluor de Lys™ Substrate in assay buffer to 100 uM (50 fold=2× final). Diluted Fluor de Lys™ developer concentrate 20-fold (e.g. 50 μl plus 950 μl Assay Buffer) in cold assay buffer. Second, diluted the 0.2 mM Trichostatin A 100-fold in the 1× Developer (e.g. 10 μl in 1 ml; final Trichostatin A concentration in the 1× Developer=2 μM; final concentration after addition to HDAC/Substrate reaction=1 μM). Added Assay buffer, diluted trichostatin A or test inhibitor to appropriate wells of the microtiter plate. Added diluted HeLa extract or other HDAC sample to all wells except for negative controls.

VEGFR = VEGFR (Homo sapiens, UniProt P35968); assay: VEGFR assay (Table B); format: biochemical
[2] = mouse, in vivo
A549 NSCLC Xenograft = assay: A549 NSCLC xenograft model; format: in vivo, mice; details: FIG. 11A, 11B
Experimental: (§1) A representative protocol for the in vivo experiment is as followed:
(§2) 1-10×10^6 human cancer cells were implanted subcutaneously to the athymic (nu/nu) mice. When the tumors reached about 100 mm^3 in volume, the mice were treated with the compound by tail vein infusion. Routinely 5 groups (8-12 mice per group) are needed for a typical efficacy study, including one negative control, one positive control, and three testing groups for 3 dose levels of the same compound. Usually a 7-7-5 (on-off-on) regimen was used for one typical study. The tumor size was measured with an electronic caliper and body weight measured with a scale twice weekly. The tumors were removed from euthanized mice at the end of the study. One half of each tumor was frozen in dry ice and stored at −80° C. for PK or Western blot analysis. The other half was fixed with formalin. The fixed tissues were processed, embedded in paraffin and sectioned for immunohistochemistry staining

[3] = system: HPAC pancreatic cancer cells; assay: HPAC pancreatic cancer xenograft; format: in vivo, mice; details: 120 mg/kg in 30% CAPTISOL (iv/ip) daily vs 50 mg/kg erlotinib (po); FIG. 12A
Experimental: as §1, §2

[4] = system: HDAC in MDA-MB-468 breast cancer cell line; assay: Inhibition of HDAC in cells (Ac-H4, Ac-H3 accumulation), FIG. 2; format: cell-based; details: MDA-MB-468, FIG. 2
cancer cell lines = assay: Anti-proliferative activity in various cancer cell lines (general statements, FIG. 3); format: cell-based; details: lung, breast, prostate, colon, pancreas cell lines
Experimental: Cell Proliferation Assay:
Cancer cell lines were plated at 5,000 to 10,000 per well in 96-well flatted bottomed plates with various concentration of compounds. The cells were incubated with compounds for 72 hours in the presence of 0.5% of fetal bovine serum. Growth inhibition was accessed by adenosine triphosphate (ATP) content assay using Perkin Elmer ATPlite kit. ATPlite is an ATP monitoring system based on firefly luciferase. Briefly, 25 μl of mammalian cell lysis solution was added to 50 μl of phenol red-free culture medium per well to lyse the cells and stabilize the ATP. 25 μl of substrate solution was then added to the well and subsequently the luminescence was measured.

[5] = Pharmacokinetic study in rats (plasma); format: in vivo; details: 20 and 60 mg/kg iv, hydrochloride salt in 30% CAPTISOL, FIG. 14
Experimental: Compound was administered via an intravenous (iv) infusion.
Rat: 20 mg/kg for 5 min i.v. infusion
Plasma samples were prepared by protein precipitation. An internal standard was added into plasma samples. […] The supernatant was then injected onto LC/MS/MS.
Samples were compared to standards made in plasma. These standards were prepared by serial dilution.

[6] = system: EGFR in MDA-MB-468 breast cancer cell line; assay: Inhibition of EGFR phosphorylation in cells, FIG. 2; format: cell-based; details: MDA-MB-468, FIG. 2
Experimental: (b) An In Vitro Assay which Determines the Ability a Test Compound to Inhibit the EGF-Stimulated EGFR Phosphorylation.
Allowed A431 cell growth in a T75 flask using standard tissue culture procedures until cells reach near confluency (˜1.5×10^7) cells; D-MEM, 10% FBS). Under sterile conditions dispensed 100 μl of the cell suspension per well in 96-well microplates (x cells plated per well). Incubated cells and monitor cell density until confluency is achieved with well-to-well consistency; approximately three days. Removed complete media from plate wells by aspiration or manual displacement. Replaced media with 50 μl of pre-warmed serum free media per well and incubated 4 to 16 hours. Made two fold serial dilutions of inhibitor using pre-warmed D-MEM so that the final concentration of inhibitor range from 10 μM to […]. Removed media from A431 cell plate. Added 100 μl of serial diluted inhibitor into cells and incubate 1 to 2 hours. Removed inhibitor from plate wells by aspiration or manual displacement. Added either serum free media for resting cells (mock) or serum free media with 100 ng/ml EGF. Used 100 μl of resting/activation media per well. Allowed incubation at 37° C. for 7.5 minutes. Removed activation or stimulation media manually or by aspiration. Immediately fixed cells with 4% formaldehyde in 1×PBS. […]

[7] = Pharmacokinetic study in mice (plasma, lung, colon); details: salt in 30% CAPTISOL
[8] = remark: listed apart in the source
Excerpt: B. Filtration of the Solution
C. Preparation of a Lyophilisate

T1 sequence (P00533 672-1210): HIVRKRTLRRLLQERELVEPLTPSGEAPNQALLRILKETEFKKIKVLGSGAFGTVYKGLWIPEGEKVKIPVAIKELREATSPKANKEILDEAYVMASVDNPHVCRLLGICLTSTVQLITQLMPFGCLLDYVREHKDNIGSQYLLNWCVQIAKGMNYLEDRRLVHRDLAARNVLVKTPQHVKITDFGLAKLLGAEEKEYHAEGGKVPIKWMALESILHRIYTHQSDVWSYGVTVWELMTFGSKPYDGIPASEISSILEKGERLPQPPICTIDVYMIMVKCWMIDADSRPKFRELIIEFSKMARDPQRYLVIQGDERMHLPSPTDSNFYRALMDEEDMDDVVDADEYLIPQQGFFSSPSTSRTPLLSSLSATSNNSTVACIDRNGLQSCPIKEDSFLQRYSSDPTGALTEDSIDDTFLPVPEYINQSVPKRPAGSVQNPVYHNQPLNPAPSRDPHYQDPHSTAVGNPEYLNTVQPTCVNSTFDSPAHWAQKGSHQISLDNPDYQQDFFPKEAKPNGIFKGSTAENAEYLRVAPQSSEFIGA
VEGFR, sequence (P35968 20-1356): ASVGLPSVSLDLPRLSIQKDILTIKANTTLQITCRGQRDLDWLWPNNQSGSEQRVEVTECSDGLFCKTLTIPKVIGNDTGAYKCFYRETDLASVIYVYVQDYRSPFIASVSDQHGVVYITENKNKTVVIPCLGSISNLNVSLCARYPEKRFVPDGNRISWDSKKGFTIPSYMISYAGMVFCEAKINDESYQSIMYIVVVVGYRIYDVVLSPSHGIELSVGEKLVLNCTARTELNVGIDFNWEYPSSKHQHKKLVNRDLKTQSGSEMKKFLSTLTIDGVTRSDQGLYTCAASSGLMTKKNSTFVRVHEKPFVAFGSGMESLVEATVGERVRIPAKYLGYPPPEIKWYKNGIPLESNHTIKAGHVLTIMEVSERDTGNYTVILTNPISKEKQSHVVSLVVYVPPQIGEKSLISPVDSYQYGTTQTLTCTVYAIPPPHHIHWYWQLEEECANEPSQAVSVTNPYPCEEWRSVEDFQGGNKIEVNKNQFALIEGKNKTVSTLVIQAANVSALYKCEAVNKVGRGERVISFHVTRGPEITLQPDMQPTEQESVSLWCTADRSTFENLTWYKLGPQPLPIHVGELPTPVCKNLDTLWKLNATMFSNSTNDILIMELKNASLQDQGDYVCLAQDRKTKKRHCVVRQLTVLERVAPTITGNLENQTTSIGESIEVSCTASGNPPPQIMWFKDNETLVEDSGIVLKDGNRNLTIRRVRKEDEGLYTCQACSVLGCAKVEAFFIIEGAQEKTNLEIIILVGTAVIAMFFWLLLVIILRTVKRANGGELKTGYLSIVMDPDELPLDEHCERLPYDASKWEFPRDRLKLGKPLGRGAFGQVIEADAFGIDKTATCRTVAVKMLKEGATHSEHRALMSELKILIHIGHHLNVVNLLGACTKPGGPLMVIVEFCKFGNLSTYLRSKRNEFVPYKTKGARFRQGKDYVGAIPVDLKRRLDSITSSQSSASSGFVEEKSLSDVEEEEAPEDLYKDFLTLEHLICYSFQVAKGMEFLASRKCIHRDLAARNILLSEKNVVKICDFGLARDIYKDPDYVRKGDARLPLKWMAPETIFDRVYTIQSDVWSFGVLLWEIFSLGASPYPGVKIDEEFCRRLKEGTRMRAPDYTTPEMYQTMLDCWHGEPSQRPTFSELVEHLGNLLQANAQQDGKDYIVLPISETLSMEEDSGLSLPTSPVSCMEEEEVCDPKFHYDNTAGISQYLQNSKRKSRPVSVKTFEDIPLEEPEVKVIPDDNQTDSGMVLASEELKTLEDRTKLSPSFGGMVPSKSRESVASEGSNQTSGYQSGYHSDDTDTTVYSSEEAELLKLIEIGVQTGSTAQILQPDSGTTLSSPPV

melting point: 195.8 to 197 °C
Compound: C#Cc1cccc(Nc2ncnc3cc(OC)c(OCCCCCCC(=O)NOC)cc23)c1 [Compound 95, 7-(4-(3-ethynylphenylamino)-7-methoxyquinazolin-6-yloxy)-N-methoxyheptanamide]

IC50 [1]: < 100 nM
activity in EFGR enzyme assay compared with erlotinib [1]: more active than erlotinib and SAHA
activity in HDAC enzyme assay compared with SAHA (HDAC; FIG. 1): more active than erlotinib and SAHA
IC50 (VEGFR): 100 to 1000 nM
Compound: COc1cc2ncnc(Nc3ccc(F)c(Cl)c3)c2cc1OCCCCCCC(=O)NO [Compound 6, 7-(4-(3-Chloro-4-fluorophenylamino)-7-methoxyquinazolin-6-yloxy)-N-hydroxyheptanamide]

IC50 (HDAC): < 100 nM
Compound: COc1cc2ncnc(Nc3ccc(F)c(Cl)c3)c2cc1SCCCCCCC(=O)NO [Compound 155]

IV Tissue [2]: High
Compound: Tartaric Acid

IC50 (VEGFR): > 10000 nM
Compound: COc1cc2ncnc(N[C@H](C)c3ccccc3)c2cc1OCCCCCCC(=O)NO [Compound 79, (R)—N-hydroxy-7-(7-methoxy-4-(1-phenylethylamino)quinazolin-6-yloxy)heptanamide]

IC50 (HDAC): < 100 nM
Compound: COc1cc2ncnc(Nc3ccc(F)c(Cl)c3)c2cc1SCCCCC(=O)NO [Compound 151]

Second part, the compound before the results:

Compound: COc1cc2ncnc(NCc3ccccc3)c2cc1OCCCCCCC(=O)NO [Compound 85, 7-(4-(Benzylamino)-7-methoxyquinazolin-6-yloxy)-N-hydroxyheptanamide]
IC50 [1]: < 100 nM
IC50 (VEGFR): 1000 to 10000 nM

Compound: C#Cc1cccc(Nc2ncnc3cc(OCCOC)c(OCCOC)cc23)c1 [Erlotinib, reference compound]
effect on tumor growth / tumor size (A549 NSCLC Xenograft): did not significantly affect tumor size

Compound: C#Cc1cccc(Nc2ncnc3cc(OC)c(OCCCCCCC(=O)NO)cc23)c1 [Compound 12, 7-(4-(3-ethynylphenylamino)-7-methoxyquinazolin-6-yloxy)-N-hydroxyheptanamide]
activity in EFGR enzyme assay compared with erlotinib [1]: more active than erlotinib and SAHA
effect on tumor growth / tumor size (A549 NSCLC Xenograft): attenuated tumor growth
attenuation of tumor growth [3]: greater attenuation of tumor growth than either erlotinib (po) or vehicle
histone acetylation (Ac-H3/Ac-H4) compared with SAHA [4]: improvement in inhibition of histone acetylation
anti-proliferative potency compared with SAHA, Erlotinib and their combination (cancer cell lines): responded better to compound 12 than a combination of erlotinib and SAHA
dose proportionality of plasma concentration [5]: proportional to the dose
inhibition of EGFR phosphorylation compared with Erlotinib [6]: improvement in inhibition of histone acetylation and EGFR phosphorylation

Compound: Citric Acid
IV Tissue [7]: Low

Compound: Sodium
IV Tissue [2]: High
Chemical stability in diluted solution [8]: >12 h
Dilution with D5W [8]: >10x
Solubility [8]: 7500 µg/mL
pH ([8]; salt in 30% CAPTISOL): 10-11
